From patent US20240246934A1, “QUINAZOLINE-BASED COMPOUND, COMPOSITION, AND APPLICATION OF QUINAZOLINE-BASED COMPOUND” (BEIJING SCITECH-MQ PHARMACEUTICALS LIMITED, priority 2021, published 2024)
Read-outs that look alike come from different tables or passages of the source.

How the values were obtained:
[1] = biological target: Ba/F3 HER2 A775_G776insYVMA cells (Homo sapiens, UniProt P04626, DUP772-775, cells depend on it); experiment: Inhibition of cell proliferation, CTG method, Ba/F3 HER2 A775_G776insYVMA; format: cell-based; conditions: 72 hours, read-out: Ba/F3 HER2 A775-G776insYVMA IC50
Chain of Ba/F3 HER2 A775_G776insYVMA cells (P04626 with tags, fused parts or gaps DUP772-775): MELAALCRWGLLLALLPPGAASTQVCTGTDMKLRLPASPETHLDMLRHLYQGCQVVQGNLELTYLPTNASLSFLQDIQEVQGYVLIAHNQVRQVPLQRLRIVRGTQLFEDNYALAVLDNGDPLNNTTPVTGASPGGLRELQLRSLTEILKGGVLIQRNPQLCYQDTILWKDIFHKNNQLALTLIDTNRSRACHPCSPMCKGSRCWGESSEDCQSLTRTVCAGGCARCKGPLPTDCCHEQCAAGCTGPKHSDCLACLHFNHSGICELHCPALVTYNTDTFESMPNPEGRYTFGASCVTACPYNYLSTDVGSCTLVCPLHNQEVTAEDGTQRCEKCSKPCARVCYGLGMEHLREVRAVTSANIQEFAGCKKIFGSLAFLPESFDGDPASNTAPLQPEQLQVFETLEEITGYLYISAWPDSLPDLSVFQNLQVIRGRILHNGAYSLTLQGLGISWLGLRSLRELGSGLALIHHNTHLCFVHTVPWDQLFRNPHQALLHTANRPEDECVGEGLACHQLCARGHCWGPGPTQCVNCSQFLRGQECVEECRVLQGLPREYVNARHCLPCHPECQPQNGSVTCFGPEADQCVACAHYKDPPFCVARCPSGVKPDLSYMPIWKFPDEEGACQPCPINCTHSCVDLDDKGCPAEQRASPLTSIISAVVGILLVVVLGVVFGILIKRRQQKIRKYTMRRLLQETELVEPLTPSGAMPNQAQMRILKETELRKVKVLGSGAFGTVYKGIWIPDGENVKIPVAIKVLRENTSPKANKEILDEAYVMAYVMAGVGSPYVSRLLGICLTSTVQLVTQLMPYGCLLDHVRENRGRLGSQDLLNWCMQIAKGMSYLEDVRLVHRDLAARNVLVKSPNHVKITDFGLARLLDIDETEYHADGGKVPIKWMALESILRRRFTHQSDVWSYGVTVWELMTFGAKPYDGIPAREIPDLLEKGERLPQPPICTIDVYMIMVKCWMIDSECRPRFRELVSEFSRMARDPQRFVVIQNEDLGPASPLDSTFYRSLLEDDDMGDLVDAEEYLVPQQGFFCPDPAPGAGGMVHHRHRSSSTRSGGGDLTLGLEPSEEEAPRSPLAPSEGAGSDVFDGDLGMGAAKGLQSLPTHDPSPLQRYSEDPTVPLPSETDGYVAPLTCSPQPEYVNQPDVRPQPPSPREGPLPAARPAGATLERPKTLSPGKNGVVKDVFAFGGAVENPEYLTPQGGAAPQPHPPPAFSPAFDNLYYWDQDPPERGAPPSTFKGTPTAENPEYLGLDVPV
Procedure, shortened: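 Ba/F3 HER2 A775_G776insYVMA cells in RPMI1640 with 10% FBS were plated at 3000 cells/well and treated directly with compound (top 10 μM, 4-fold, 9 concentrations, duplicates).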

[2] = biological target: Ba/F3 EGFR D770_N771insSVD cells (Homo sapiens, UniProt P00533, DUP768-770, cells depend on it); experiment: Inhibition of cell proliferation, CTG method, Ba/F3 EGFR D770_N771insSVD; format: cell-based; conditions: 72 hours, read-out: Ba/F3 EGFR D770_N771insSVD IC50
Chain of Ba/F3 EGFR D770_N771insSVD cells (P00533 with tags, fused parts or gaps DUP768-770): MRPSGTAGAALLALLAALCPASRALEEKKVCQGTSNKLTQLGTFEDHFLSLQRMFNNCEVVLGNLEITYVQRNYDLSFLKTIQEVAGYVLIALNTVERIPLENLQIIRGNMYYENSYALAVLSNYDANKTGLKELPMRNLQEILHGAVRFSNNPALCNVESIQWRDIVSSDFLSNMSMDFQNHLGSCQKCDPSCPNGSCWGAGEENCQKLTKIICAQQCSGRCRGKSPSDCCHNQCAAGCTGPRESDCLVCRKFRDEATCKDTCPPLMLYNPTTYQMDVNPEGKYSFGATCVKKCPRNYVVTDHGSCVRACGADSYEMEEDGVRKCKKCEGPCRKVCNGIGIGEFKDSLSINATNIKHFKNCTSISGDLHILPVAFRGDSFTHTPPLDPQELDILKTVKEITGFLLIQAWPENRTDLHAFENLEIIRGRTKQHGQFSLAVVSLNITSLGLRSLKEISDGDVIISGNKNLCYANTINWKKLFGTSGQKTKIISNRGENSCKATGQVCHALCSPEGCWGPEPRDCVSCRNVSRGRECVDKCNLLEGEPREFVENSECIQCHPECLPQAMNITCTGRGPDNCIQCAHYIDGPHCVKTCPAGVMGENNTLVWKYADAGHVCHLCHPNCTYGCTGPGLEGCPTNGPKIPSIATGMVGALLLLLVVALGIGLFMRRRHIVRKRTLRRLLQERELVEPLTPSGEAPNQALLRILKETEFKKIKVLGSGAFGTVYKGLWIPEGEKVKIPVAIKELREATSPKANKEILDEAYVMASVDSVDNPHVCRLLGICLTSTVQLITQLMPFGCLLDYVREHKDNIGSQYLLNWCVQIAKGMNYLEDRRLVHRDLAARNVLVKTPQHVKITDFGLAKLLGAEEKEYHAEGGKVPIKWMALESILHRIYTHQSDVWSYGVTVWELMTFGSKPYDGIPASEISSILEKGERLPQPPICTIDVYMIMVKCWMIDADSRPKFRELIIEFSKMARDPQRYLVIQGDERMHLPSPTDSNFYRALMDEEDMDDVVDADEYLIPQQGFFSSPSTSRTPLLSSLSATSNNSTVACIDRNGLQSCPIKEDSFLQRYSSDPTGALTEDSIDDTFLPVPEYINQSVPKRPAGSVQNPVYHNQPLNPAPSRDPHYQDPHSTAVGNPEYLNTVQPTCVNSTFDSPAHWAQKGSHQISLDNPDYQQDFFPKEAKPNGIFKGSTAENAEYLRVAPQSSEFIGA
Source text: The present application examined the in vitro anti-proliferative activity of the compounds of the present disclosure against in vitro cultured BT474, NCI-N87, Ba/F3-EGFR-VIII and Ba/F3 HER2 A775_G776insYVMA and Ba/F3 EGFR D770_N771insSVD cell lines by CTG method.
Reagents and consumables: RPMI1640 (ThermoFisher, Cat. No. C11875500BT); fetal bovine serum (Hyclone, Cat. No. SV30087.03); 0.25% trypsin-EDTA (ThermoFisher, Cat. No. 25200-072); penicillin-streptomycin (Hyclone, Cat. No. SV30010); DMSO (Amresco, Cat. No. 0231-500ML); CTG assay kit (Promega, Cat. No. G924C); 96-well plate (Corning, Cat. No. 3603); multifunctional plate reader (Perkin Elmer, Cat. No. Envision)
Cell lines: BT474 (from the cell bank of Chinese Academy of Sciences), NCI-N87 (from ATCC), Ba/F3-EGFR-VIII, Ba/F3 HER2 A775_G776insYVMA and Ba/F3 EGFR D770_N771insSVD (all from KYinno Biotechnology (Beijing) Co., Ltd.); all of the above cells were cultured with RPMI1640 medium containing 10% fetal bovine serum, 100 U/mL penicillin, and 100 μg/mL streptomycin in the culture process.
1. The assay compound was dissolved with DMSO to form a stock solution and a gradient dilution was performed, followed by dilution with the corresponding medium to obtain a solution with 5-fold working concentration.
2. Cells in logarithmic growth phase were adjusted to specific cell densities by dilution with culture medium, and 80 μL of cell suspension was added to a 96-well plate, such that plating densities of cells of BT474, NCI-N87, Ba/F3-EGFR-VIII, Ba/F3 HER2 A775_G776insYVMA and Ba/F3 EGFR D770_N771insSVD were all 3000 cells/well. The cells of Ba/F3-EGFR-VIII, Ba/F3 HER2 A775_G776insYVMA and Ba/F3 EGFR D770_N771insSVD were used directly in the next step (treatment with compound), whereas the BT474 and NCI-N87 needed to be cultured overnight in a 37° C., 5% carbon dioxide gas incubator to adhere to the wall, and then treated with compounds.
3. 20 μL of compound solution was added to each well of the 96-well plate that had been inoculated with cells. The highest concentration of the assayed compound was 10 μM, 4-fold serial dilution, a total of 9 concentrations, and duplicate wells. A control group without compound was also set up.
4. The cells were cultured for another 72 hours, and then cell viability was detected by CTG assay kit. Signal values were read with a multifunctional plate reader (Perkin Elmer). GraphPad Prism software was used to create a dose-response curve and IC50 was calculated.

EGFR^WT kinase = EGFR^WT kinase (Homo sapiens, UniProt P00533); experiment: EGFR^WT kinase assay (ULight/PT66 TR-FRET); format: biochemical
Chain of EGFR^WT kinase (P00533 25-1210): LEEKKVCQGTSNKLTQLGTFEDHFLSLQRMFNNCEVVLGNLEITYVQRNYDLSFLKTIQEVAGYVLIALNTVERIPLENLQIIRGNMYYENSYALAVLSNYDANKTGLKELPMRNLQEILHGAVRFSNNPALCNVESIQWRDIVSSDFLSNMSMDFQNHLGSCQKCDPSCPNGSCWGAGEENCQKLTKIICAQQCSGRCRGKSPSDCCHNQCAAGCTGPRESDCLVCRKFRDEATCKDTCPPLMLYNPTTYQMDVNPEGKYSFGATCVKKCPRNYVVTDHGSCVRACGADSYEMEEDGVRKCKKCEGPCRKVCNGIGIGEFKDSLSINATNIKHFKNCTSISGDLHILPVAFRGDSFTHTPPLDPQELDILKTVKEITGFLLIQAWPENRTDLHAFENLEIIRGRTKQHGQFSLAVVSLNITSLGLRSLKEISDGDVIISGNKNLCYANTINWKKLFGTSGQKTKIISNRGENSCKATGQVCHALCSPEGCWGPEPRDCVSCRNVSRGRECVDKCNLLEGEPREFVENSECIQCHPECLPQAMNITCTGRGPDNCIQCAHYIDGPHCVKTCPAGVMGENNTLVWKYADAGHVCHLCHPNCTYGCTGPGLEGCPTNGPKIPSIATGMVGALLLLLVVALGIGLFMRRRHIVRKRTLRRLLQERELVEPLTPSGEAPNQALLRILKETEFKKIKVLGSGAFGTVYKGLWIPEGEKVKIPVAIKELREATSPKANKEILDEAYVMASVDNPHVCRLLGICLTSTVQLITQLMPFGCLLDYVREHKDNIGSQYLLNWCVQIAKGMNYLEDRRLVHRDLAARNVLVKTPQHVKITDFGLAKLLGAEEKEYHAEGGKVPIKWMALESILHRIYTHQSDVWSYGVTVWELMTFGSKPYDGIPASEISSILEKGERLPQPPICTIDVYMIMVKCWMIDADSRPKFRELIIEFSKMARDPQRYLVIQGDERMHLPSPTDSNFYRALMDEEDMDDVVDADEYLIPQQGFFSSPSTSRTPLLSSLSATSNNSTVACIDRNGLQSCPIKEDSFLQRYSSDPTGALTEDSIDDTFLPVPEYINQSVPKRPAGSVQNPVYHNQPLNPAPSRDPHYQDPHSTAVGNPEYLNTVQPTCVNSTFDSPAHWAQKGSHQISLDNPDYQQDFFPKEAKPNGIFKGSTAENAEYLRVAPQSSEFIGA
Procedure, shortened: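 Enzyme preincubated 5 min with compound (11-point 3-fold series, duplicate), then ULight-JAK-1 (Tyr1023) peptide and ATP added at 4× stocks of 400 nM and 600 μM; 120 min reaction at room temperature. PT66 antibody TR-FRET read after 60 min; IC50 fitted from inhibition rates.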

HER2 kinase = biological target: T1, HER2 kinase (Homo sapiens, UniProt P04626); experiment: HER2 kinase assay (ULight/PT66 TR-FRET); format: biochemical
T1 construct: purchased Carna Biosciences 08-016
T1 sequence (P04626 23-1255): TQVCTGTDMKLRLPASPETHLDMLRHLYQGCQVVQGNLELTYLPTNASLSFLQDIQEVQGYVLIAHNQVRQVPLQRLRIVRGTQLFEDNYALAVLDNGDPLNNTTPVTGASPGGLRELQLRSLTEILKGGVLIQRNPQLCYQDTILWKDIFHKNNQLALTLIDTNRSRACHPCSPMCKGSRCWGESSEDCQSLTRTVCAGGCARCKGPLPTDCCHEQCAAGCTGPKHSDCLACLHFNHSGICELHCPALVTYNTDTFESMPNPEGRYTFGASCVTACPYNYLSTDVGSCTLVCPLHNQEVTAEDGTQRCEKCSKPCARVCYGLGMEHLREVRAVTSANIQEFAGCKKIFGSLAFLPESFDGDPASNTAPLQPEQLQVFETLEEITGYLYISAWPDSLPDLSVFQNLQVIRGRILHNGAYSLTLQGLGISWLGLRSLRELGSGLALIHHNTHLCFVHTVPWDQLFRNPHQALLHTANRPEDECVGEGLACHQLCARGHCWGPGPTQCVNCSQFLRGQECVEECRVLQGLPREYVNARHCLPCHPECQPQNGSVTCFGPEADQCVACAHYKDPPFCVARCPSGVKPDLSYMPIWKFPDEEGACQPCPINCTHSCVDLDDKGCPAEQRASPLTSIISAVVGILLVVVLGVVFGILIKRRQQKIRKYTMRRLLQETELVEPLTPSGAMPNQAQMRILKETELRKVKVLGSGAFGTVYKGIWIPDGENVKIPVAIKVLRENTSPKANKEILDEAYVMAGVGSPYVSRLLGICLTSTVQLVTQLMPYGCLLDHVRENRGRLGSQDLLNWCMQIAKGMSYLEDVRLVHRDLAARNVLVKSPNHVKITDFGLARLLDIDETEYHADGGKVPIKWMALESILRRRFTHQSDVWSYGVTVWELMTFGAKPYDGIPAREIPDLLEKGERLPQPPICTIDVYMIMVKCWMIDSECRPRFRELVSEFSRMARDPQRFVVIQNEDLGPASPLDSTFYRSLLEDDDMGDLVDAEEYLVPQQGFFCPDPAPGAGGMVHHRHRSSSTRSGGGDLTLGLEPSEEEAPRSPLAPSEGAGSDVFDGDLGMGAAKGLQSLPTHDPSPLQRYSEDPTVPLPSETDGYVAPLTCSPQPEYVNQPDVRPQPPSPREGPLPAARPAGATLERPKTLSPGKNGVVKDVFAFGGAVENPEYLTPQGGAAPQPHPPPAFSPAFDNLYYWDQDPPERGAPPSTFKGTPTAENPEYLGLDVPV
Procedure, shortened: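 HER2 kinase preincubated 5 min with compounds (11-point 3-fold series, duplicates), then reacted 120 min at room temperature with ATP and ULight-poly GT peptide, each prepared at 4× working concentration (40 μM ATP, 400 nM substrate, 40 nM kinase). PT66 antibody added for 60 min, TR-FRET read; IC50 from inhibition curves.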

[3] = test system: Ba/F3 ERBB2 A775_G776insYVMA; experiment: Efficacy in nude mouse tumor-bearing model of Ba/F3 ERBB2 A775_G776insYVMA; format: in vivo, BALB/c nude mice
Procedure: In this assay, some compounds of the application were orally administered to a nude mouse tumor-bearing model of Ba/F3 ERBB2 A775_G776insYVMA to study the effect of the compounds of the application on tumor growth.
Preparation of the assay compound: an appropriate weight of the compound to be assayed was weighed, and completely dissolved in an appropriate volume of vehicle (DMSO). The mixture was vortexed or sonicated. Then an appropriate amount of Solutol was added and mixed well. Finally, sterilized drinking water was added and the mixture was mixed by stirring or vortexing to obtain a homogeneous solution or suspension.
Method: All the assays were authorized and agreed by the Animal Welfare Committee. Ba/F3 ERBB2 A775_G776insYVMA in a logarithmic growth period was inoculated subcutaneously into the right back of immunodeficient nude mice (BALB/c nude, female, 6-7 weeks of age, body weight 18±2 g) with 4×10^6 cells/rat. After the tumor grew to 150-200 mm^3, the animals were randomly divided into a treatment group and a control group. For the treatment group, a solution of each assay compound was given, and for the control group, a vehicle solution without the assay compound was given. Both of the treatment group and the control group were administered once a day for about 2 weeks. The dose of each assay article was 30 mg/kg (in terms of effective compound concentration), and the assay compounds were all prepared freshly for use. During the assay, the diameter of loaded tumors was measured twice a week, and the mice were weighed at the same time. The tumor volume (TV) was calculated by the formula: TV=½×a×b^2, where a and b denote length and width, respectively. Relative tumor volume (RTV) was calculated based on the measured results by the formula: RTV=Vt/V0, where V0 is the tumor volume measured at grouping and administration and Vt is the tumor volume at each measurement. The evaluation index of antitumor activity was the relative tumor proliferation rate T/C (%) calculated by the formula: T/C (%)=(TRTV/CRTV)×100%, TRTV: RTV of the administration group; CRTV: RTV of the control group. T and C denote the average tumor volume at a certain time point in the administration group and the control group, respectively.

[4] = Brain tissue and whole blood concentration in SD rats after oral administration; format: in vivo; conditions: rat, PO 10 mg/kg, 2 h after administration
Procedure: In this assay, the pharmacokinetic characteristics of the compounds of the present application were assayed after administration of some of the compounds of the present application to SD rats by single oral administration and intravenous injection.
2. […] The mixture was stirred, vortexed and/or sonicated. Once a solution was obtained, the vehicle was gradually added to a final volume to reach the target concentration. The solution was vortexed, and sonicated to obtain a homogeneous solution.
Meanwhile, the IV group was not fasted and the PO group was fasted overnight (>12 hrs) and given food 2 hrs after drug administration. All animals had free access to water. The dosing regimen and pharmacokinetic sampling regimen are given in Table 6 and Table 7 below, respectively.
Rats were administered according to the above regimen, and blood and brain tissue samples were collected and processed at predetermined time points (collection and processing were performed according to conventional methods in the art).
The supernatant was diluted 2-fold with ultra-pure water, and the samples were analyzed by LC/MS.
Brain tissues were weighed and homogenized by adding 4-fold homogenizing solution (acetonitrile/water=1/1 v/v). […] The supernatant was diluted 2-fold with ultra-pure water, and the samples were analyzed by LC/MS.

[5] = Pharmacokinetics in SD rats, single intravenous injection and oral administration; format: in vivo, SD rat
Procedure: In this assay, the pharmacokinetic characteristics of the compounds of the present application were assayed after administration of some of the compounds of the present application to SD rats by single oral administration and intravenous injection. 1. […] The mixture was stirred, vortexed and/or sonicated. Once a solution was obtained, the vehicle was gradually added to a final volume to reach the target concentration. The solution was vortexed, and sonicated to obtain a homogeneous solution. The solution was filtered through a 0.22 μm PVDF membrane. 2. […] The mixture was stirred, vortexed and/or sonicated. Once a solution was obtained, the vehicle was gradually added to a final volume to reach the target concentration. The solution was vortexed, and sonicated to obtain a homogeneous solution. […] Meanwhile, the IV group was not fasted and the PO group was fasted overnight (>12 hrs) and given food 2 hrs after drug administration. All animals had free access to water. The dosing regimen and pharmacokinetic sampling regimen are given in Table 6 and Table 7 below, respectively. […] Rats were administered according to the above regimen, and blood and brain tissue samples were collected and processed at predetermined time points (collection and processing were performed according to conventional methods in the art). […] The supernatant was diluted 2-fold with ultra-pure water, and the samples were analyzed by LC/MS. Pharmacokinetic parameters was calculated using WinNonlin software. The following pharmacokinetic parameters was calculated from the plasma drug concentration-time data: CL (clearance); Vd (apparent volume of distribution); T1/2 (elimination half-life time); Cmax (peak concentration); Tmax (time to peak); AUC (area under plasma drug concentration-time curve); MRT (mean retention time); F % (bioavailability).

[6] = SD, rat, whole blood, IV 3 mg/kg
[7] = SD, rat, whole blood, PO 10 mg/kg, NA: Exposure was too low to be counted

GI50 [1] [nM]	GI50 [2] [nM]	IC50 (EGFR^WT kinase) [nM]	IC50 (HER2 kinase) [nM]	concentration at 2 h ([4]; whole blood, read-out: Blood drug concentration) [ng/mL]	Kp at 2 h ([4]; brain / whole blood, read-out: Brain tissue/blood ratio)	concentration at 2 h ([4]; brain, NA: Exposure was too low to be counted, read-out: Brain tissue concentration) [ng/g]	Cl_obs ([5]; IV 3 mg/kg) [mL/min/kg]	AUC(0-inf) [5, 6] [ng·h/mL]	AUC(0-t) [5, 6] [ng·h/mL]	Vd [5, 6] [L/kg]	half-life [5, 6] [h]	bioavailability ([5]; SD, rat, whole blood, PO 10 mg/kg vs IV 3 mg/kg, NA: Exposure was too low to be counted, read-out: F % (bioavailability)) [%]	AUC(0-inf) [5, 7] [ng·h/mL]	AUC(0-t) [5, 7] [ng·h/mL]	Cmax [5, 7] [ng/mL]	Tmax [5, 7] [h]	half-life [5, 7] [h]	Compound	effect on tumor size (in words) ([3]; 30 mg/kg PO)	T/C (%) ([3]; 30 mg/kg, QD×14, PO, day 14)
1 to 5	10 to 100	< 10	< 10															CN1CCC[C@@H]1/C=C/C(=O)Nc1ccc2ncnc(Nc3ccc(OCc4ccccn4)c(Cl)c3)c2c1OCC(C)(C)O [Example 15, (R,E)-N-(4-((3-chloro-4-(pyridin-2-ylmethoxy)phenyl)amino)-5-(2-hydroxy-2-methylpropoxy)quinazolin-6-yl)-3-(1-methylpyrrolidin-2-yl)acrylamide]		
10 to 100				884	0.0291	25.8	6.04 ± 0.63	8340 ± 890	8310 ± 892	1.81 ± 0.26	3.45 ± 0.24	10.1 ± 4	2810 ± 1110	2790 ± 1110	246 ± 76	4.33 ± 2.52	3.6 ± 0.37	CCOc1cc2ncc(C#N)c(Nc3ccc(OCc4ccccn4)c(Cl)c3)c2cc1NC(=O)/C=C/[C@H]1CCCN1C [PYROTINIB, pyrotinib, reference compound]	still remain significant growth	38.3
1 to 5	10 to 100	< 10	< 10															CCN1CCC[C@@H]1/C=C/C(=O)Nc1ccc2ncnc(Nc3ccc(OCc4cccc(F)c4)c(Cl)c3)c2c1OC [Example 28, (R,E)-N-(4-((3-chloro-4-(3-fluorobenzyloxy)phenyl)amino)-5-methoxyquinazolin-6-yl)-3-(1-ethylpyrrolidin-2-yl)acrylamide]		
